Patent US7534418B2, “Imaging agents” (The Regents of the University of Michigan, priority 2004, dated 2009)
Entries after “also recorded” stand apart in the source; their conditions may differ.

Tested on: cardiac sympathetic neurons of the isolated rat heart
Assay: Kinetics of [11C]phenethylguanidines in isolated perfused working rat heart (neuronal uptake and clearance)
Conditions: for Major Clearance Rate T1/2 / half-life: rat
Excerpt: To evaluate radiolabeled phenethylguanidines as imaging agents for nuclear medicine, several [^11C]-labeled phenethylguanidines were synthesized and initial bioevaluations of these compounds performed using an isolated rat heart preparation. […] [^11C]-labeling was used to initially assess the imaging properties of these compounds for the following reasons. A radiosynthetic method for making [^11C]guanidines (see, e.g., Westerberg, G. and Langstrom, B. (1997) J. Labeled Compds. Radiopharm. 39:525-529; herein incorporated by reference in its entirety), allowed efficient synthesis and evaluation of these compounds.
The present invention is not limited to a particular mechanism. Indeed, an understanding of the mechanism is not necessary to practice the present invention. […] Provided below is a detailed description of how these specific kinetic properties offer a significant advantage over currently available sympathetic nerve radiotracers.

Compound	Neuronal Uptake Rate Kup (isolated rat heart)	neuronal retention / clearance (in words) (isolated rat heart)	Major Clearance Rate T1/2	also measured
2-[^18F]fluoro-2-deoxy-D-glucose [FDG, reference compound]				myocardial uptake rate (isolated rat heart, 10 mM glucose, no insulin, 10 min constant infusion, FIG. 5): 0.31 ml/min/g wet
C[C@H](N[11C](=N)N)[C@H](O)c1cccc(O)c1 [I-9, N-[^11C]guanyl-(−)-metaraminol]	0.08 mL/min/g	very long neuronal retention times	20.18 h	neuronal uptake rate (in words) (isolated rat heart): slow and slower than all currently used tracers
COc1ccc(CCN[11C](=N)N)cc1 [I-3, [^11C]para-methoxy-phenethylguanidine]	0.73 mL/min/g		2.28 h	
N=[11C](N)NCCc1cccc(I)c1 [III-1, [^11C]meta-iodophenethylguanidine]	1.10 mL/min/g	approximately the same rate as MIBG	2.38 h	neuronal uptake rate, times slower than MIBG (isolated rat heart, relative to MIBG): around 3 times
N=[11C](N)NCCc1ccccc1 [I-1, [^11C]phenethylguanidine]	1.56 mL/min/g		3.33 h	
N=[11C](N)NCCc1ccc(F)cc1 [II-2, [^11C]para-fluorophenethylguanidine]	0.63 mL/min/g		4.43 h	
CNC[C@H](O)c1cccc(O)c1 [PHEN, [^11C]phenylephrine, reference compound]	0.72 mL/min/g			half-life: 1.63 h
C[C@H](N[11CH3])[C@H](O)c1cccc(O)c1 [HED, [^11C]meta-hydroxyephedrine, reference compound]	2.35 mL/min/g			
N=[11C](N)NCCc1cc(O)ccc1F [II-5, [^11C]ortho-fluoro-meta-hydroxy-phenethylguanidine]	0.54 mL/min/g	very long neuronal retention times	20.12 h	
N=[11C](N)NC[C@H](O)c1ccc(O)c(O)c1 [I-8, N-[^11C]guanyl-norepinephrine]	0.09 mL/min/g			
N=[11C](N)NCCc1ccccc1F [II-3, [^11C]ortho-fluorophenethylguanidine]	1.76 mL/min/g		2.25 h	
N=[11C](N)NCCc1ccc(F)c(O)c1 [II-4, [^11C]para-fluoro-meta-hydroxy-phenethylguanidine]	0.77 mL/min/g	very long neuronal retention times	trapped	
NC(N)=NCc1cccc(I)c1 [MIBG, [^11C]meta-iodobenzylguanidine, reference compound]	3.65 mL/min/g			neuronal uptake rate (in words) (isolated rat heart): very rapid
N=[11C](N)NCCc1ccc(O)c(O)c1 [I-6, [^11C]3,4-dihydroxyphenethylguanidine]	1.07 mL/min/g		23.52 h	
N=[11C](N)NCCc1cccc(O)c1 [I-4, [^11C]meta-hydroxyphenethylguanidine]	2.12 mL/min/g	efficient vesicular storage; also recorded: very long retention times	trapped	neuronal uptake rate (in words) (isolated rat heart): fast and rapid
NC[C@H](O)c1ccc(O)c(O)c1 [NE, [^3H]norepinephrine, reference compound]	4.44 mL/min/g			half-life: > 16.7 h
N=[11C](N)NCC(O)c1cccc(O)c1 (stereo not drawn) [I-7, N-[^11C]guanyl-meta-octopamine]	0.28 mL/min/g	very long neuronal retention times	216.67 h	neuronal uptake rate (in words) (isolated rat heart): slow and slower than all currently used tracers; neuronal uptake rate (isolated rat heart, 10 min constant infusion, FIG. 5): 0.28 ml/min/g wet; neuronal retention / clearance (in words) (isolated rat heart, listed as GMO): well retained; also recorded: neuronal trapping of GMO is more efficient than the myocardial trapping of FDG
N=[11C](N)NC[C@H](O)c1ccccc1 [I-2, [^11C](−)-β-hydroxyphenethylguanidine]	0.42 mL/min/g		19.3 h	
CNC[C@H](O)c1ccc(O)c(O)c1 [EPI, [^11C]epinephrine, reference compound]	0.60 mL/min/g			half-life: 26.3 h
N=[11C](N)NCCc1cccc(F)c1 [II-1, [^11C]meta-fluorophenethylguanidine]	0.24 mL/min/g		1.93 h	
N=[11C](N)NCCc1ccc(O)cc1 [I-5, [^11C]para-hydroxyphenethylguanidine]	1.92 mL/min/g	efficient vesicular storage; also recorded: very long retention times	48.13 h	neuronal uptake rate (in words) (isolated rat heart): fast and rapid; neuronal retention / clearance (in words) (isolated rat heart, listed as PHPG): well retained
